Source: patent publication US8637561B2, “Linked diimidazole derivatives” (Enanta Pharmaceuticals, Inc., priority 2009, dated 2014)
pEC50: −log10 of the molar value.

The molecules below were run on HCV 1b genotype replicon (assay: HCV replicon assay (qRT-PCR or luciferase), genotype 1b). Conditions: Hepatitis C virus, read-out: Genotype-1b replicon EC50 Range.
Assay type: cell-based
Source text: HCV replicon cell lines (kindly provided by R. Bartenschlager) isolated from colonies as described by Lohman et al. (Lohman et al. (1999) Science 285: 110-113, expressly incorporated by reference in its entirety) and used for all experiments. The HCV replicon has the nucleic acid sequence set forth in EMBL Accession No.: AJ242651, the coding sequence of which is from nucleotides 1801 to 8406.
The coding sequence of the published HCV replicon was synthesized and subsequently assembled in a modified plasmid pBR322 (Promega, Madison, Wis.) using standard molecular biology techniques. One replicon cell line (“SGR 11-7”) stably expresses HCV replicon RNA which consists of (i) the HCV 5′UTR fused to the first 12 amino acids of the capsid protein, (ii) the neomycin phosphotransferase gene (neo), (iii) the IRES from encephalomyocarditis virus (EMCV), and (iv) HCV NS2 to NS5B genes and the HCV 3′UTR. […]
EC50 values of single agent compounds and combinations were determined by HCV RNA detection using quantitative RT-PCR, according to the manufacturer's instructions, with a TaqMan® One-Step RT-PCR Master Mix Reagents Kit (Cat# AB 4309169, Applied Biosystems) on an ABI Model 7500 thermocycler. The TaqMan primers used for detecting and quantifying HCV RNA were obtained from Integrated DNA Technologies. HCV RNA was normalized to GAPDH RNA levels in drug-treated cells, which is detected and quantified using the Human GAPDH Endogenous Control Mix (Applied Biosystems, AB 4310884E). […] Chemical agent cytotoxicity is evaluated using an MTS assay according to the manufacturer's directions (Promega). […]

| SMILES | pEC50 |
| --- | --- |
| COC(=O)N[C@@H](C(=O)N1CCC[C@H]1c1nc(C2=CCC(c3ccc(-c4cnc([C@@H]5CCCN5C(=O)[C@H](NC(=O)OC)c5ccccc5)[nH]4)cc3)CC2)c[nH]1)c1ccccc1 (stereo partly drawn) [Example 1-b] | > 9.00 |
| COC(=O)N[C@@H](C(=O)N1CCC[C@H]1c1ncc(C#Cc2ccc(-c3cnc([C@@H]4CCCN4C(=O)[C@H](NC(=O)OC)c4ccccc4)[nH]3)cc2)[nH]1)c1ccccc1 [Example 299] | > 9.00 |
| COC(=O)N[C@@H](C(=O)N1CCC[C@H]1c1ncc(CCc2ccc(-c3cnc([C@@H]4CCCN4C(=O)[C@H](NC(=O)OC)c4ccccc4)[nH]3)cc2)[nH]1)c1ccccc1 [Example 361] | > 9.00 |
